Experimental data taken from paper PMC7915732, “Screening of Yeast Display Libraries of Enzymatically Treated Peptides to Discover Macrocyclic Peptide Ligands” (International Journal of Molecular Sciences, 2021).
Blank lines part the entries; values can stand above or below the substance they belong to.

Tests used:
[1] = target: T1, WW domains of YAP (WW-YAP) (Homo sapiens, UniProt P46937); experiment: Yeast surface titration (yeast-displayed peptide, soluble biotinylated WW-YAP); format: binding; parameters: key to KD (apparent) WW-YAP: N/D: not detectable; L/B: low binding; conditions: for binding to WW-YAP (in words): linear peptide, no transglutaminase
T1 construct: which affords the expression of the WW domains of YAP (AAs 165–271); made in house; host or cells: Rosetta E. coli
Description: The binding affinity of cyclo[E-[…]-K] for N-terminal YAP and WW-YAP was characterized using a yeast surface titration method developed in prior work. Specifically, yeast cells displaying (putative) cyclo[E-[…]-K] were incubated with soluble, biotinylated N-terminal YAP or WW-YAP to generate binding isotherms; the fraction of cell surface fusions bound by the biotinylated target protein was quantified via immunofluorescent detection of SA-PE (Figure 4). The resulting data were fit to a monovalent binding isotherm to estimate the binding affinity (KD) of the peptide (Table 1). Binding isotherms were also generated using BSA (Figure 4A,C), to characterize the binding selectivity, as well as for cells displaying the linear precursor ([…]), to evaluate the effect of cyclization on the binding activity of the identified peptide sequence (Figure 4B,D).
(§1) Figure 4 Surface titrations of (A) yeast cells displaying (putative) cyclo[E-[…]-K] with the WW domain of YAP (WW-YAP, black circles) and bovine serum albumin (BSA, green diamonds); (B) yeast cells displaying the linear peptide sequence […] with WW-YAP; (C) yeast cells displaying (putative) cyclo[E-[…]-K] with N-terminal-YAP (N-YAP, black circles) and BSA (green diamonds); and (D) yeast cells displaying the linear peptide sequence […] with N-YAP. The binding of each biotinylated protein was detected using SA-PE followed by flow cytometry analysis. […]
Yeast cells encoding the linear precursor […] were induced. […] The cells were then analyzed by flow cytometry as described in [21, 50]. A SA-PE only labeling was also carried out to quantify the mean background fluorescence. […] The values of KD were estimated using Equation (1):(1) F=Fmax[L]o/KD+[L]o where F is the background subtracted mean fluorescence intensity, [L]o is the concentration of soluble target protein used for labeling, and Fmax is the background subtracted fluorescence intensity when surface-saturation is obtained. Fmax was set as the highest value of fluorescence observed in each data set. […]

N-terminal YAP (N-YAP) = target: T2, N-terminal YAP (N-YAP) (Homo sapiens, UniProt P46937); experiment: Yeast surface titration (yeast-displayed peptide, soluble biotinylated N-terminal YAP); format: binding; conditions: linear peptide, no transglutaminase
T2 construct: which affords the expression of N-terminal YAP (AAs 1–291); made in house; host or cells: Rosetta E. coli
Description: (§2) The binding affinity of cyclo[E-[…]-K] for N-terminal YAP and WW-YAP was characterized using a yeast surface titration method developed in prior work. Specifically, yeast cells displaying (putative) cyclo[E-[…]-K] were incubated with soluble, biotinylated N-terminal YAP or WW-YAP to generate binding isotherms; the fraction of cell surface fusions bound by the biotinylated target protein was quantified via immunofluorescent detection of SA-PE (Figure 4). The resulting data were fit to a monovalent binding isotherm to estimate the binding affinity (KD) of the peptide (Table 1). […]
as §1
(§3) Yeast cells encoding the linear precursor […] were induced. […] The cells were then analyzed by flow cytometry as described in [21, 50]. A SA-PE only labeling was also carried out to quantify the mean background fluorescence. […]

TEV protease [2] = experiment: Cleavage of yeast-displayed peptide by TEV protease, flow cytometry; conditions: TEV 3 μM overnight, 37 °C, PBSCl pH 8, three independent replicates
Description: We further evaluated the alleged cyclization yield by assessing the extent of cleavage of transglutaminase-treated vs. untreated peptide constructs from yeast cells by TEV protease. The latter recognizes the sequence ENLYFQ-G/S and cleaves between the Q and G/S residues. We hypothesize that peptide modifications—such as cyclization –inhibit TEV protease from interacting with its recognition sequence included between the construct’s His tag and HA tag. Accordingly, yeast cells expressing the linear peptide precursor—that were either treated with transglutaminase or left untreated—were incubated with TEV protease, and the binding of antibodies targeting the HA and c-myc tags was quantified via flow cytometry. […]
Yeast cells displaying linear peptide precursors (model sequence […] or 8-mer library sequences) fused to specific epitope tags (HA and c-myc tags for model sequence […]; HA and His tags for library cells) were induced. […] The non-fluorescently conjugated primary antibodies were detected by labeling with a 1:250 dilution of goat-anti-chicken antibody (Immunoreagents, Raleigh, NC, USA) or donkey-anti-rabbit (Immunoreagents, Raleigh, NC, USA) labeled with Alexa Fluor 488 (green), respectively. […] At least 50,000 cells from each sample were analyzed using a MACSQuant VYB Cytometer (Miltenyi Biotec, Bergisch Gladbach, Germany)). […]

transglutaminase = experiment: Flow cytometry detection of c-myc tag after extracellular transglutaminase treatment; conditions: 1 μM transglutaminase overnight, 37 °C, PBS pH 6, three independent replicates
Description: In this study, we adopted the sequence […] as a model linear precursor to evaluate the efficiency of transglutaminase-mediated cyclization on the surface of yeast cells; this peptide, in fact, served as model substrate in prior work on transglutaminase-mediated cyclization. Specifically, we designed a plasmid construct to express the lead sequence […] as an Aga2p fusion on the surface of Saccharomyces cerevisiae cells. Together with the model peptide, the Aga2p fusion construct contains c-myc and HA epitope tags as well as a tobacco etch virus (TEV) protease signal recognition sequence (Figure 1B). […]
Yeast cells displaying linear peptide precursors (model sequence […] or 8-mer library sequences) fused to specific epitope tags (HA and c-myc tags for model sequence […]; HA and His tags for library cells) were induced. […] The non-fluorescently conjugated primary antibodies were detected by labeling with a 1:250 dilution of goat-anti-chicken antibody (Immunoreagents, Raleigh, NC, USA) or donkey-anti-rabbit (Immunoreagents, Raleigh, NC, USA) labeled with Alexa Fluor 488 (green), respectively. […] At least 50,000 cells from each sample were analyzed using a MACSQuant VYB Cytometer (Miltenyi Biotec, Bergisch Gladbach, Germany)).

TEV protease [3] = experiment: TEV protease cleavage, intracellular transglutaminase co-expression, flow cytometry; conditions: 48 h induction
Description: Screening of Yeast Display Libraries of Enzymatically Treated
Peptides to Discover Macrocyclic Peptide Ligands
John Bowen, John Schneible, Kaitlyn Bacon, Collin Labar, Stefano Menegatti and Balaji M. Rao […]
Plasmid construction for intracellular […]
peptide precursors on the surface […]
expression of the transglutaminase en-zyme downstream of the Gal10 promoter. […]
and inserted between the AgeI and KpnI sites of […]
under the direction of the Gal1 promoter and transglutaminase under the direction of the Gal10 promoter. […]
a 6 base pair oligonucleotide encoding the Kex2 recognition site between the pro and active transglutaminase sequence
50 ng of purified PCR product was treated with 1 […]
perature followed by incubation
DNA was then treated for 5 min at room
(New England Biolabs) prior to transformation into electrocompe- […]
introduce a point mutation […]
with an alanine (A) residue
, followed by the treatments with […]
prior to kinase, ligase, and DpnI treatment
Evaluation of intracellular transglutaminase […]
induction, a subset of the cells was treated with TEV protease as described in Section 2.3 to evaluate the extent of putative peptide cyclization. […] Induced cells that were not exposed to TEV protease were also analyzed for comparison. […]
S.1.5. […] The enrich-ment of peptide binders targeting N-terminal YAP between the screening rounds was evaluated via flow cytometry. […]

[4] = target: bovine serum albumin (BSA) (Bos taurus, UniProt P02769); experiment: Yeast surface titration with biotinylated BSA (selectivity control); format: binding; conditions: Figure S7A, intracellular transglutaminase route
Description: as §2, §1, §3

T1 sequence (P46937 165-271): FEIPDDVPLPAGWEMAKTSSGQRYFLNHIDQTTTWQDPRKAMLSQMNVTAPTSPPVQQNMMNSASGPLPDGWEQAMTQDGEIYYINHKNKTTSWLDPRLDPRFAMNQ
Sequence of bovine serum albumin (BSA) (P02769 25-607): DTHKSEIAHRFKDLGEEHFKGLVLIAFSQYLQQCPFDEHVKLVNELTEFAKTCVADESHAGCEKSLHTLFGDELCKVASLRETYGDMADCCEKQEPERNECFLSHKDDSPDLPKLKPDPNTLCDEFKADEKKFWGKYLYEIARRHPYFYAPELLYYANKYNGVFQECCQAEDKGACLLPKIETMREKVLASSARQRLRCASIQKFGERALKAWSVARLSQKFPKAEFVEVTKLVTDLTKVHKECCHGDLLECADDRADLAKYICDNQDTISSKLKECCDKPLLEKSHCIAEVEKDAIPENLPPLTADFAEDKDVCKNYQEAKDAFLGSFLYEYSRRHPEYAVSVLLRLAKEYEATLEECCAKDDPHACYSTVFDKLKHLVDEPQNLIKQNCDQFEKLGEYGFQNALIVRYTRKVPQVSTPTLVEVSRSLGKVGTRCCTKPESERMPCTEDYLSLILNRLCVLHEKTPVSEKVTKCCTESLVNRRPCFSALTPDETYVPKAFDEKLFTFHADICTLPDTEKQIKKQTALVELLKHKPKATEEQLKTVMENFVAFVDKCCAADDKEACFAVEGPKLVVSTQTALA
T2 sequence (P46937 1-291): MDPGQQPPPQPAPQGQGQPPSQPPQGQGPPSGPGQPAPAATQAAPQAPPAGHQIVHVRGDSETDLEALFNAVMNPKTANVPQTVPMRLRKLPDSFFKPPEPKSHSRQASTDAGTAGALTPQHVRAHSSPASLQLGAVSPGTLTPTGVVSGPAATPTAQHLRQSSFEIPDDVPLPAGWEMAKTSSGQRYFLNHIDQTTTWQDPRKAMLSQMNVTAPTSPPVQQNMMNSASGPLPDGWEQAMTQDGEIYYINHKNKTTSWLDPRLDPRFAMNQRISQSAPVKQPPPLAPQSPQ

- binding to WW-YAP (in words) ([1]; listed as linear form of the peptide): not WW-YAP
- binding to WW-YAP (in words) ([1]; listed as linear precursors): much lower binding affinity
- KD (apparent) WW-YAP ([1]; monovalent binding isotherm, 1 h at 4 °C, 0.1% PBSA, SA-PE flow cytometry, average of three independent replicates ± one standard error): L/B
- binding to N-terminal YAP (in words) (N-terminal YAP (N-YAP)): shown to bind to N-terminal YAP
Substance: QLYLAYPAHK

Substance: ALQSGSRGGG-EQKLISEEDL [model peptide]
- c-myc level after TEV protease, transglutaminase-treated (TEV protease [2]; transglutaminase-treated): only a slight decrease
- c-myc level after TEV protease, no transglutaminase (TEV protease [2]; untreated with transglutaminase): significant decrease in fluorescence
- c-myc signal change on transglutaminase treatment (transglutaminase): a notable decrease in the c-myc signal

Substance: ALASGSRGGG [active TG, Q-to-A lead/c-myc]
- c-myc detection after TEV protease (intracellular constructs) (TEV protease [3]): significantly lower binding

- binding specificity N-terminal YAP vs. BSA (in words) [4]: selective binder for N-terminal YAP
Substance: cyclo[E-VQCRGKGEQ-K] (sidechain bridge or staple) [putative cyclic peptide from intracellular transglutaminase library]
